Read-outs that look alike come from different tables or passages of the source. Each block holds one compound with its values, some of them ahead of it.
Columns and labels:
cyclooxygenase-2 (COX-2) [1] = target: T1, cyclooxygenase-2 (COX-2) (Homo sapiens, UniProt P35354); test: Microsomal cyclooxygenase assay, COX-2 (PGE2 synthesis, microsomes of human osteosarcoma 143 cells); type: biochemical; conditions: for inhibition at 0.1 µM: 100 nM; for inhibition at 0.1 µM / inhibition at 0.01 µM / inhibition at 1 µM: read-out: Microsomes COX-2 % inhib.; for inhibition at 1 µM: 1000 nM
T1 construct: human osteosarcoma 143 cells (which specifically express cyclooxygenase-2); endogenous in cells; host or cells: human osteosarcoma 143 cells (whole cells, and microsomes prepared from them)
T1 sequence (P35354 18-604): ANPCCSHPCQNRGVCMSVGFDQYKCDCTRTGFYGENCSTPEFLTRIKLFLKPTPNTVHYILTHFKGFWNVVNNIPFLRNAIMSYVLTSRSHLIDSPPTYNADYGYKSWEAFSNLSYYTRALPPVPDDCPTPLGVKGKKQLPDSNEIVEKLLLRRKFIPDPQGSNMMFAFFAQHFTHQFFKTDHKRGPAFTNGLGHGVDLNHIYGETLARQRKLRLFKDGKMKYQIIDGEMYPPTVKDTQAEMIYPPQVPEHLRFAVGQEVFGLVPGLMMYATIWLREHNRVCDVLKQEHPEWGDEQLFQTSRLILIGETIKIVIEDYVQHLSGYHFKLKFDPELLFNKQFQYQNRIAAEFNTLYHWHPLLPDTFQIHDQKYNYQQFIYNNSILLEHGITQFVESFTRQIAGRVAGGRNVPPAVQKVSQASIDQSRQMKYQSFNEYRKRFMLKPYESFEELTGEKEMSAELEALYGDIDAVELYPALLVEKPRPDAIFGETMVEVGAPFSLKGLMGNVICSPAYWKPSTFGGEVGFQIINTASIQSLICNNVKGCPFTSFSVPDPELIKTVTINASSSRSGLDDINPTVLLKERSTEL
Procedure: (§1) Compounds were tested as inhibitors of cyclooxygenase activity in whole cell and microsomal cyclooxygenase assays. Both of these assays measured prostaglandin E2 (PGE2) synthesis in response to arachidonic acid, using a radioimmunoassay. Cells used for whole cell assays, and from which microsomes were prepared for microsomal assays, were human osteosarcoma 143 cells (which specifically express cyclooxygenase-2) and human U-937 cells (which specifically express cyclooxygenase-1). In these assays, 100% activity is defined as the difference between prostaglandin E2 synthesis in the absence and presence of arachidonate addition.

cyclooxygenase-1 (COX-1) [2] = target: T2, cyclooxygenase-1 (COX-1) (Homo sapiens, UniProt P23219); test: Microsomal cyclooxygenase assay, COX-1 (PGE2 synthesis, microsomes of human U-937 cells); type: biochemical; conditions: for inhibition at 0.1 µM: 100 nM; for inhibition at 0.1 µM / inhibition at 0.01 µM / inhibition at 1 µM: read-out: Microsomes COX-1 % inhib.; for inhibition at 1 µM: 1000 nM
T2 construct: human U-937 cells (which specifically express cyclooxygenase-1); endogenous in cells; host or cells: human U-937 cells (whole cells, and microsomes prepared from them)
T2 sequence (P23219 24-599): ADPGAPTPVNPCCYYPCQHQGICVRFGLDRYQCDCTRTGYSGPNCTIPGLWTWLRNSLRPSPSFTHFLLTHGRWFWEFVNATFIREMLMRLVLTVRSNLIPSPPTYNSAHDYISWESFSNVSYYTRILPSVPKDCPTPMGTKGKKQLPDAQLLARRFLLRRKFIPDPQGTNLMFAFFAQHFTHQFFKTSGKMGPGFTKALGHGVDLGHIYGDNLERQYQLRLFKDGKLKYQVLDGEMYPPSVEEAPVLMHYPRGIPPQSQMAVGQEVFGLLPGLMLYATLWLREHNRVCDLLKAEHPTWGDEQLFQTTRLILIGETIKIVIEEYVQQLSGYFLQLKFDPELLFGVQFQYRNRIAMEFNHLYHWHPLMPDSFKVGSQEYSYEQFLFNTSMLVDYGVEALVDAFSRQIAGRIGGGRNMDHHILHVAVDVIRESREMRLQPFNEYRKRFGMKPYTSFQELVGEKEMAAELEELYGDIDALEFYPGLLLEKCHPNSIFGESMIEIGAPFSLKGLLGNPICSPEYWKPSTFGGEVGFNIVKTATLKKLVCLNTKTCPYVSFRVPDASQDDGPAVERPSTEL
Procedure: as §1

cyclooxygenase-2 (COX-2) [3] = target: T1, cyclooxygenase-2 (COX-2); test: Whole cell cyclooxygenase assay, COX-2 (PGE2 synthesis in response to arachidonic acid, radioimmunoassay), human osteosarcoma 143 cells; type: cell-based; conditions: read-out: Whole Cells COX-2 % inhib.; for inhibition at 0.01 µM: 10 nM; for inhibition at 0.04 µM: 40 nM; for inhibition at 0.08 µM: 80 nM
Procedure: as §1

cyclooxygenase-1 (COX-1) [4] = target: T2, cyclooxygenase-1 (COX-1); test: Whole cell cyclooxygenase assay, COX-1 (PGE2 synthesis in response to arachidonic acid, radioimmunoassay), human U-937 cells; type: cell-based; conditions: read-out: Whole Cells COX-1 % inhib.; for inhibition at 0.1 µM: 100 nM; for inhibition at 0.01 µM: 10 nM
Procedure: as §1

- inhibition at 0.1 µM (cyclooxygenase-2 (COX-2) [1]): 71%
- inhibition at 0.1 µM (cyclooxygenase-1 (COX-1) [2]): 12%
- inhibition at 0.1 µM (cyclooxygenase-2 (COX-2) [3]; 100 nM): 95%
SMILES: NS(=O)(=O)c1ccc(C2=C(c3ccc(F)cc3)C(=O)OC2)cc1 [Example 10, 3-(4-Fluorophenyl)-4-(4-(aminosulfonyl)phenyl)-2-(2H)-furanone]

- inhibition at 0.1 µM (cyclooxygenase-2 (COX-2) [1]): 53%
- inhibition at 0.1 µM (cyclooxygenase-1 (COX-1) [4]): 12%
- inhibition at 0.1 µM (cyclooxygenase-1 (COX-1) [2]): 8%
- inhibition at 0.1 µM (cyclooxygenase-2 (COX-2) [3]; 100 nM): 96%
SMILES: CC(C)(O)c1cc(-c2ccc(S(N)(=O)=O)cc2)c(-c2ccc(F)cc2)s1 [Example 1]

- inhibition at 0.01 µM (cyclooxygenase-2 (COX-2) [1]; 10 nM): 49%
- inhibition at 0.01 µM (cyclooxygenase-1 (COX-1) [4]): 0%
- inhibition at 0.01 µM (cyclooxygenase-1 (COX-1) [2]; 10 nM): 25%
- inhibition at 0.01 µM (cyclooxygenase-2 (COX-2) [3]): 69%
SMILES: NS(=O)(=O)c1ccc(-c2ccsc2-c2ccc(F)cc2)cc1 [Example 2, 3-(4-(Aminosulfonyl)phenyl)-2-(4-fluorophenyl)thiophene]

- inhibition at 1 µM (cyclooxygenase-2 (COX-2) [1]): 58%
- inhibition at 0.1 µM (cyclooxygenase-1 (COX-1) [4]): 0%
- inhibition at 1 µM (cyclooxygenase-1 (COX-1) [2]): 16%
- inhibition at 0.1 µM (cyclooxygenase-2 (COX-2) [3]; 100 nM): 74%
SMILES: CS(=O)(=O)c1ccc(C2=C(c3ccc(F)cc3)C(=O)CC2)cc1 [Example 7, 2-(4-Fluorophenyl)-3-(4-(methylsulfonyl)phenyl)-2-cyclopenten-1-one]

- inhibition at 0.1 µM (cyclooxygenase-2 (COX-2) [1]): 19%
- inhibition at 0.1 µM (cyclooxygenase-1 (COX-1) [2]): 16%
- inhibition at 0.1 µM (cyclooxygenase-2 (COX-2) [3]; 100 nM): 78%
SMILES: Cc1nc(-c2ccc(F)cc2)c(-c2ccc(S(C)(=O)=O)cc2)s1 [Example 6, 4-(4-Fluorophenyl)-2-methyl-5-(4-(methylsulfonyl)phenyl)thiazole]

- inhibition at 0.1 µM (cyclooxygenase-2 (COX-2) [1]): 46%
- inhibition at 0.1 µM (cyclooxygenase-1 (COX-1) [2]): 7%
- inhibition at 0.1 µM (cyclooxygenase-2 (COX-2) [3]; 100 nM): 39%
SMILES: CS(=O)(=O)c1ccc(-c2cocc2-c2ccc(F)cc2)cc1 [Example 11, 3-(4-Fluorophenyl)-4-(4-(methylsulfonyl)phenyl)furan]

SMILES: CS(=O)(=O)c1ccc(C2=C(c3ccc(F)cc3)C(=O)OC2)cc1 [Example 9, 3-(4-Fluorophenyl)-4-(4-(methylsulfonyl)phenyl)-2-(5H)-furanone]
- inhibition at 0.1 µM (cyclooxygenase-2 (COX-2) [1]): 37%
- inhibition at 0.1 µM (cyclooxygenase-2 (COX-2) [3]): 83%

- Microsomes COX-2 % inhib. (cyclooxygenase-2 (COX-2) [1]; 10 nM, 0.01 µM): 58%
- inhibition at 0.01 µM (cyclooxygenase-2 (COX-2) [1]; 10 nM): 52%
- Microsomes COX-1 % inhib. (cyclooxygenase-1 (COX-1) [2]; 10 nM, 0.01 µM): 10%
- inhibition at 0.01 µM (cyclooxygenase-1 (COX-1) [2]; 10 nM): 7%
- inhibition at 0.01 µM (cyclooxygenase-2 (COX-2) [3]): 41%
- inhibition at 0.1 µM (cyclooxygenase-2 (COX-2) [3]; 100 nM): 84%
SMILES: NS(=O)(=O)c1ccc(-c2sccc2-c2ccc(F)cc2)cc1 [Example 13, 2-((4-aminosulfonyl)phenyl)-3-(4-fluorophenyl)thiophene]

- inhibition at 0.01 µM (cyclooxygenase-2 (COX-2) [1]; 10 nM): 33%
- inhibition at 0.1 µM (cyclooxygenase-2 (COX-2) [1]): 76%
- inhibition at 0.01 µM (cyclooxygenase-1 (COX-1) [2]; 10 nM): 19%
- inhibition at 0.1 µM (cyclooxygenase-1 (COX-1) [2]): 12%
- inhibition at 0.01 µM (cyclooxygenase-2 (COX-2) [3]): 42%
- inhibition at 0.1 µM (cyclooxygenase-2 (COX-2) [3]; 100 nM): 100%
SMILES: CC(C)c1cc(-c2ccc(S(N)(=O)=O)cc2)c(-c2ccc(F)cc2)s1 [Example 3, 3-(4-(Aminosulfonyl)phenyl)-2-(4-fluorophenyl)-5-(2-propyl)thiophene]

- inhibition at 0.01 µM (cyclooxygenase-2 (COX-2) [1]; 10 nM): 43%
- inhibition at 0.01 µM (cyclooxygenase-1 (COX-1) [4]): 0%
- inhibition at 0.01 µM (cyclooxygenase-1 (COX-1) [2]; 10 nM): 31%
- inhibition at 0.01 µM (cyclooxygenase-2 (COX-2) [3]): 0%
SMILES: CS(=O)(=O)c1ccc(-c2cc(C(=O)O)sc2-c2ccc(C(=O)O)cc2)cc1 [Example 5, 5-(4-Carboxyphenyl)-4-(4-(methylsulfonyl)phenyl)thiophene-2-carboxylic acid]

- inhibition at 0.01 µM (cyclooxygenase-2 (COX-2) [3]): 30%
- inhibition at 0.04 µM (cyclooxygenase-2 (COX-2) [3]): 80%
- inhibition at 0.16 µM (cyclooxygenase-2 (COX-2) [3]; 160 nM): 102%
SMILES: CS(=O)(=O)c1ccc(C2=C(c3ccc(F)c(Cl)c3)C(=O)OC2)cc1 [Example 34, 3-(3-Chloro-4-fluorophenyl)-4-(4-(methylsulfonyl)phenyl)-2-(5H)-furanone]

- inhibition at 0.04 µM (cyclooxygenase-2 (COX-2) [3]): 21%
- inhibition at 0.16 µM (cyclooxygenase-2 (COX-2) [3]; 160 nM): 59%
SMILES: CS(=O)(=O)c1ccc(C2=C(c3cc(F)cc(F)c3)C(=O)OC2)cc1 [Example 19, 3-(3,5-Difluorophenyl)-4-(4-(methylsulfonyl)phenyl)-2-(5H)-furanone]

- inhibition at 0.01 µM (cyclooxygenase-2 (COX-2) [1]; 10 nM): 45%
- inhibition at 0.1 µM (cyclooxygenase-2 (COX-2) [1]): 63%
- inhibition at 1 µM (cyclooxygenase-2 (COX-2) [1]): 69%
- inhibition at 0.01 µM (cyclooxygenase-1 (COX-1) [2]; 10 nM): 29%
- inhibition at 0.1 µM (cyclooxygenase-1 (COX-1) [2]): 0%
- inhibition at 1 µM (cyclooxygenase-1 (COX-1) [2]): 0%
- inhibition at 0.01 µM (cyclooxygenase-2 (COX-2) [3]): 73%
- inhibition at 0.1 µM (cyclooxygenase-2 (COX-2) [3]; 100 nM): 89%
- inhibition at 1 µM (cyclooxygenase-2 (COX-2) [3]; 1000 nM): 101%
SMILES: O=C(NS(=O)(=O)c1ccc(-c2ccsc2-c2ccc(F)cc2)cc1)C(F)(F)F [Example 14, 3-(4-(Trifluoroacetylaminosulfonyl)phenyl)-2-(4-fluorophenyl)thiophene]

- inhibition at 0.01 µM (cyclooxygenase-2 (COX-2) [1]; 10 nM): 47%
- inhibition at 0.01 µM (cyclooxygenase-1 (COX-1) [2]; 10 nM): 2%
SMILES: NS(=O)(=O)c1ccc(-c2ccsc2C2CCCCC2)cc1 [Example 4, 3-(4-(Aminosulfonyl)phenyl)-2-cyclohexylthiophene]

- inhibition at 0.16 µM (cyclooxygenase-2 (COX-2) [3]; 160 nM): 6%
SMILES: CS(=O)(=O)c1ccc(C2=C(c3c(Cl)cccc3Cl)C(=O)OC2)cc1 [Example 33, 3-(2,6-Dichlorophenyl)-4-(4-(methylsulfonyl)phenyl)-2-(5H)-furanone]

- inhibition at 0.02 µM (cyclooxygenase-2 (COX-2) [3]; 20 nM): 32%
- inhibition at 0.04 µM (cyclooxygenase-2 (COX-2) [3]): 57%
- inhibition at 0.16 µM (cyclooxygenase-2 (COX-2) [3]; 160 nM): 83%
SMILES: CS(=O)(=O)c1ccc(C2=C(c3ccc(C(F)(F)F)cc3)C(=O)OC2)cc1 [Example 35, 3-(4-Trifluoromethylphenyl)-4-(4-(methylsulfonyl)phenyl)-2-(5H)-furanone]

- inhibition at 0.01 µM (cyclooxygenase-2 (COX-2) [3]): 61%
- inhibition at 0.04 µM (cyclooxygenase-2 (COX-2) [3]): 74%
- inhibition at 0.16 µM (cyclooxygenase-2 (COX-2) [3]; 160 nM): 101%
SMILES: CS(=O)(=O)c1ccc(C2=C(c3ccc(Br)c(F)c3)C(=O)OC2)cc1 [Example 47, 3-(4-Bromo-3-fluorophenyl)-4-(4-(methylsulfonyl)phenyl)-2-(5H)-furanone]

- inhibition at 0.01 µM (cyclooxygenase-2 (COX-2) [3]): 53%
- inhibition at 0.04 µM (cyclooxygenase-2 (COX-2) [3]): 91%
- inhibition at 0.08 µM (cyclooxygenase-2 (COX-2) [3]): 99%
SMILES: CS(=O)(=O)c1ccc(C2=C(c3ccc4ccccc4c3)C(=O)OC2)cc1 [Example 49, 3-(2-Naphthyl)-4-(4-(methylsulfonyl)phenyl)-2-(5H)-furanone]

- inhibition at 0.02 µM (cyclooxygenase-2 (COX-2) [3]; 20 nM): 41%
- inhibition at 0.04 µM (cyclooxygenase-2 (COX-2) [3]): 50%
- inhibition at 0.16 µM (cyclooxygenase-2 (COX-2) [3]; 160 nM): 85%
SMILES: CS(=O)(=O)c1ccc(C2=C(c3ccc(F)c(F)c3)C(=O)OC2)cc1 [Example 16, 3-(3,4-Difluorophenyl)-4-(4-(methylsulfonyl)phenyl)-2-(5H)-furanone]

SMILES: CS(=O)(=O)c1ccc(C2=C(c3ccccc3)C(=O)OC2)cc1 [Example 23, 3-(Phenyl)-4-(4-(methylsulfonyl)phenyl)-2-(5H)-furanone]
- inhibition at 0.02 µM (cyclooxygenase-2 (COX-2) [3]): 50%
- inhibition at 0.16 µM (cyclooxygenase-2 (COX-2) [3]): 88%

- inhibition at 0.08 µM (cyclooxygenase-2 (COX-2) [3]): 42%
SMILES: CS(=O)(=O)c1ccc(C2=C(c3ccc4cccnc4c3)C(=O)OC2)cc1 [Example 50, 3-(7-Quinolinyl)-4-(4-(methylsulfonyl)phenyl)-2-(5H)-furanone]
